pEC50, pIC50: −log10 of the molar value. ≈ marks a conversion by molar mass, not a printed value.
Tests used:
[1] = target: T1, PBP3 from Escherichia coli (K-12) (Escherichia coli, UniProt P0AD68); test: Bocillin-FL fluorescence polarization competition binding, E. coli PBP3
T1 construct: made in house
How it was run: (§1)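 Purified PBP was preincubated with inhibitor (E. coli PBP3 1.5 μM, 30 min; P. aeruginosa PBP3 0.75 μM, A. baumannii PBP3 0.2 μM and PBP1a 1 μM, 15 min), then Bocillin-FL (0.1 μM; 0.05 μM for PBP1a) added and FP read up to 60 min. EC50 = 50% loss of bound probe.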

A. baumannii ATCC 19606 = test: microbe, parasite or virus in culture; format: cell-based; details: Acinetobacter baumannii, ATCC19606, read-out: MIC, A. baumannii ATCC 19606
[2] = target: T2, PBP1a from Acinetobacter baumannii (ATCC 19606) (Acinetobacter baumannii, UniProt A0ABX6CK30); test: Bocillin-FL fluorescence polarization competition binding, A. baumannii PBP1a; details: fluorescence polarization competition binding assay using Bocillin-FL; read-out: A. baumannii PBP1a Potency
T2 sequence (A0ABX6CK30 1-851): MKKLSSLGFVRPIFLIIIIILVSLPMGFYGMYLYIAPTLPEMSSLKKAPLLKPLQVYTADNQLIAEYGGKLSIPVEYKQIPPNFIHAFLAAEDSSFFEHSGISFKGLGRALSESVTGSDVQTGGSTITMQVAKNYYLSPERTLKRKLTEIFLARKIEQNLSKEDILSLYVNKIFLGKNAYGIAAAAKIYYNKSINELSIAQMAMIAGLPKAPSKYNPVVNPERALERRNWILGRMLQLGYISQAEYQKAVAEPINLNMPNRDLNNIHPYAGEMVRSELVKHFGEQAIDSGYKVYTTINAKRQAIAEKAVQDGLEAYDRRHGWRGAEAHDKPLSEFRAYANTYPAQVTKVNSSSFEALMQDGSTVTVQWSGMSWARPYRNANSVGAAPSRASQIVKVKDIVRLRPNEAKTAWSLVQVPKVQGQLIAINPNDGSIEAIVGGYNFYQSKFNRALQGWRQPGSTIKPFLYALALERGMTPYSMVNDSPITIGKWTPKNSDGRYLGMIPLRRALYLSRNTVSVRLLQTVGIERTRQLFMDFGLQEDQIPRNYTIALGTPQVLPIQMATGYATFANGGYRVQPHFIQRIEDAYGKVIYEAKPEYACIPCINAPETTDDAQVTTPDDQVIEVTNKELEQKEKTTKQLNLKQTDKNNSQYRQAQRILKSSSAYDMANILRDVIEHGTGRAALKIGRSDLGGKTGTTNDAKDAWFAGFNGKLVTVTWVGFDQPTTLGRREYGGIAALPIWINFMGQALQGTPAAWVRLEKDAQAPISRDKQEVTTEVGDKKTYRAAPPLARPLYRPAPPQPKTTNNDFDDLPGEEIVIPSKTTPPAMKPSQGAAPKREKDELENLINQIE
How it was run: as §1

A. baumannii CDC-0033 = test: microbe, parasite or virus in culture; format: cell-based; details: Acinetobacter baumannii, CDC0033, read-out: MIC, A. baumannii CDC-0033
[3] = system: P. aeruginosa (ΔmexAB-oprM); test: Broth microdilution MIC in iron-depleted CAMHB (IDM); format: cell-based; details: Pseudomonas aeruginosa; iron-depleted CAMHB (IDM); […]; read-out: Minimum inhibitory concentration, P. aeruginosa ΔmexAB-oprM
N. gonorrhoeae WHO Z = test: Liquid broth MIC in Fastidious broth; details: Neisseria gonorrhoeae, read-out: Minimum Inhibitory Concentration, WHO Z
N. gonorrhoeae WHO K = test: Liquid broth MIC in Fastidious broth; details: Neisseria gonorrhoeae, read-out: Minimum Inhibitory Concentration, WHO K
A. baumannii ATCC 17978 = test: microbe, parasite or virus in culture; format: cell-based; details: Acinetobacter baumannii, ATCC17978, read-out: MIC, A. baumannii ATCC 17978

T1 sequence (P0AD68 1-577): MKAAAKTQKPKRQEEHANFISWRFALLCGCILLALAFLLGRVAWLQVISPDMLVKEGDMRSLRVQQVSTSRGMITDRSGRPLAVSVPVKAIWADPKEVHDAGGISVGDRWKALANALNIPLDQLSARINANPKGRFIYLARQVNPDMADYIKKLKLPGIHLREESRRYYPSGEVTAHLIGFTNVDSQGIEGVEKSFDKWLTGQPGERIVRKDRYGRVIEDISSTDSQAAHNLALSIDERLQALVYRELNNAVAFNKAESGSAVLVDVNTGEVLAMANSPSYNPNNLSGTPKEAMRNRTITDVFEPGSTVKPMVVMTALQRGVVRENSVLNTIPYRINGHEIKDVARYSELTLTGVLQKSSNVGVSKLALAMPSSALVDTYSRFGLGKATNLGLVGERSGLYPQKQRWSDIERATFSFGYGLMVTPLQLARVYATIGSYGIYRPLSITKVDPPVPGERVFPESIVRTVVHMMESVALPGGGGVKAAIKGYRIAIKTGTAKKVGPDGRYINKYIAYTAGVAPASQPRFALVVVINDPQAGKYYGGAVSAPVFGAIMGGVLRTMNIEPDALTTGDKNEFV

| Compound | pEC50 [1] | MIC (A. baumannii ATCC 19606) [µg/mL] | pIC50 [2] | MIC (A. baumannii CDC-0033) [µg/mL] | MIC [3] [µg/mL] | MIC (N. gonorrhoeae WHO Z) [µg/mL] | MIC (N. gonorrhoeae WHO K) [µg/mL] | MIC (A. baumannii ATCC 17978) [µg/mL] |
| --- | --- | --- | --- | --- | --- | --- | --- | --- |
| O=C(NCCCS(=O)(=O)N1CCN(C(=O)N[C@@H](C(=O)N[C@H]2Cc3ccc(F)c(C(=O)O)c3OB2O)c2cc(F)c(O)c(O)c2Cl)C1=O)c1cccc(O)c1 [Example 271, (R)-3-((R)-2-(2-chloro-5-fluoro-3,4-dihydroxyphenyl)-2-(3-((3-(3-hydroxybenzamido)propyl)sulfonyl)-2-oxoimidazolidine-1-carboxamido)acetamido)-7-fluoro-2-hydroxy-3,4-dihydro-2H-benzo[e][1,2]oxaborinine-8-carboxylic acid] | > 5.00 | < 1 | < 3.60 | 2 to 4 (≈ 2.51 to 5.03 µM) | < 1 | 4 to 8 (≈ 5.03 to 10.1 µM) | > 64 | < 1 |
| O=C(NCCCS(=O)(=O)N1CCN(C(=O)NC(C(=O)N[C@H]2Cc3ccc(F)c(C(=O)O)c3OB2O)c2cc(F)c(O)c(O)c2Cl)C1=O)c1ccncc1 (stereo partly drawn) [Example 272, (3R)-3-(2-(2-chloro-5-fluoro-3,4-dihydroxyphenyl)-2-(3-((3-(isonicotinamido)propyl)sulfonyl)-2-oxoimidazolidine-1-carboxamido)acetamido)-7-fluoro-2-hydroxy-3,4-dihydro-2H-benzo[e][1,2]oxaborinine-8-carboxylic acid] | > 5.00 | < 1 | < 3.60 | 8 to 16 (≈ 10.2 to 20.5 µM) | < 1 | 4 to 8 (≈ 5.12 to 10.2 µM) | > 64 | < 1 |
| O=C(NCCCS(=O)(=O)N1CCN(C(=O)NC(C(=O)N[C@H]2Cc3ccc(F)c(C(=O)O)c3OB2O)c2cc(F)c(O)c(O)c2Cl)C1=O)c1cccnc1 (stereo partly drawn) [Example 273, (3R)-3-(2-(2-chloro-5-fluoro-3,4-dihydroxyphenyl)-2-(3-((3-(nicotinamido)propyl)sulfonyl)-2-oxoimidazolidine-1-carboxamido)acetamido)-7-fluoro-2-hydroxy-3,4-dihydro-2H-benzo[e][1,2]oxaborinine-8-carboxylic acid] | > 5.00 | < 1 | < 3.60 | 2 to 4 (≈ 2.56 to 5.12 µM) | < 1 | 4 to 8 (≈ 5.12 to 10.2 µM) | > 64 | < 1 |
| O=C(NCCCS(=O)(=O)N1CCN(C(=O)NC(C(=O)N[C@H]2Cc3ccc(F)c(C(=O)O)c3OB2O)c2cc(F)c(O)c(O)c2Cl)C1=O)c1nccs1 (stereo partly drawn) [Example 274, (3R)-3-(2-(2-chloro-5-fluoro-3,4-dihydroxyphenyl)-2-(2-oxo-3-((3-(thiazole-2-carboxamido)propyl)sulfonyl)imidazolidine-1-carboxamido)acetamido)-7-fluoro-2-hydroxy-3,4-dihydro-2H-benzo[e][1,2]oxaborinine-8-carboxylic acid] | > 5.00 | < 1 | < 3.60 | 8 to 16 (≈ 10.2 to 20.3 µM) | < 1 | 16 to 32 (≈ 20.3 to 40.7 µM) | > 64 | < 1 |
| O=C(O)c1c(F)ccc2c1OB(O)[C@@H](NC(=O)C(NC(=O)N1CCN(S(=O)(=O)CCCNC(=O)[C@@H]3CCCN3)C1=O)c1cc(F)c(O)c(O)c1Cl)C2 (stereo partly drawn) [Example 275, (3R)-3-(2-(2-chloro-5-fluoro-3,4-dihydroxyphenyl)-2-(2-oxo-3-((3-((S)-pyrrolidine-2-carboxamido)propyl)sulfonyl)imidazolidine-1-carboxamido)acetamido)-7-fluoro-2-hydroxy-3,4-dihydro-2H-benzo[e][1,2]oxaborinine-8-carboxylic acid] | 4.30 to 5.00 | < 1 | < 3.60 | 8 to 16 (≈ 10.4 to 20.7 µM) | < 1 | 16 to 32 (≈ 20.7 to 41.4 µM) | > 64 | < 1 |
| O=C(NCCCS(=O)(=O)N1CCN(C(=O)NC(C(=O)N[C@H]2Cc3ccc(F)c(C(=O)O)c3OB2O)c2cc(F)c(O)c(O)c2Cl)C1=O)Nc1ccc(O)cc1 (stereo partly drawn) [Example 276, (3R)-3-(2-(2-chloro-5-fluoro-3,4-dihydroxyphenyl)-2-(3-((3-(3-(4-hydroxyphenyl)ureido)propyl)sulfonyl)-2-oxoimidazolidine-1-carboxamido)acetamido)-7-fluoro-2-hydroxy-3,4-dihydro-2H-benzo[e][1,2]oxaborinine-8-carboxylic acid] | > 5.00 | < 1 | < 3.60 | 8 to 16 (≈ 9.87 to 19.7 µM) | < 1 | 4 to 8 (≈ 4.93 to 9.87 µM) | > 64 | < 1 |
